In US20090221567A1, “MUSCARINIC RECEPTOR AGONISTS, COMPOSITIONS, METHODS OF TREATMENT THEREOF, AND PROCESSES FOR PREPARATION THEREOF 177” (ASTRAZENECA AB, priority 2008, published 2009) one finds EC50 data, which are given here for 16 compounds.

As a reminder, the EC50 is the concentration needed to bring the measured effect to its halfway point.

This test has as its target T1, hM1 (human Muscarinic receptor subtype 1) (Homo sapiens, UniProt P11229).
T1 construct: expressed in transfected cells; host or cells: CHO cells (Chinese hamster ovary cells, ATCC)
T1 sequence (P11229 1-460): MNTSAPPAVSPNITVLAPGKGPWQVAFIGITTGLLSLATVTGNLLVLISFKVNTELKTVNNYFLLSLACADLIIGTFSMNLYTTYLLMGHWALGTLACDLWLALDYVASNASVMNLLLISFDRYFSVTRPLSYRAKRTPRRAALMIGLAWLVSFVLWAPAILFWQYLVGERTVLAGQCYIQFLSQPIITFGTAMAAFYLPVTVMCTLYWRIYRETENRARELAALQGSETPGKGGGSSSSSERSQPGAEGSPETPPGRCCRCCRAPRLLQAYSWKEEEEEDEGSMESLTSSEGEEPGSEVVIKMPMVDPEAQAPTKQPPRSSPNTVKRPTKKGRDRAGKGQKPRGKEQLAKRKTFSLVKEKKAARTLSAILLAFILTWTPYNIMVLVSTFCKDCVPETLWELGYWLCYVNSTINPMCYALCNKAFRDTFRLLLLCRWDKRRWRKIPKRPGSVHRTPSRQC
In words: Human M1 calcium mobilization FLIPR assay. The test is classed as cell-based. To be noted: receptor expressed in CHO cells, intracellular Ca2+ release; read-out: hM1 EC50. The procedure:
The compound activity in the present invention (EC50 or IC50) is measured using a 384 plate-based imaging assay that monitors drug induced intracellular Ca^2+ release in whole cells. Activation of hM1 (human Muscarinic receptor subtype 1, gene bank access NM_000738), rM1 (rat Muscarinic receptor subtype 1, gene bank access NM_080773), hM3 (human Muscarinic receptor subtype 3, gene bank access NM_000740NM_000740) and hM5 (human Muscarinic receptor subtype 5, gene bank access NM_0121258), receptors expressed in CHO cells (Chinese hamster ovary cells, ATCC) is quantified in a Molecular Devices FLIPR IITM instrument as an increase in fluorescent signal. Inhibition of hM3 and hM5 by compounds is determined by the decrease in fluorescent signal in response to 2 nM acetylcholine activation.
Prior to experiment, the cell culture medium is removed from the plates by inversion. […] Plates are incubated at 37° C. for 60 minutes prior to start the experiment. The incubation is terminated by washing the cells four times in assay buffer, leaving a residual 25 μl buffer per well. Cell plates are then transferred to the FLIPR, ready for compound additions.
The day of experiment, acetylcholine and compounds are diluted in assay buffer in three-fold concentration range (10 points serial dilution) for addition by FLIPR instrument. For all calcium assays, a baseline reading is taken for 10 seconds followed by the addition of 12.5 μl of compounds, resulting in a total well volume of 37.5 μl. Data is collected every second for 60 pictures and then every 6 seconds for 20 pictures prior to the addition of agonist. For hM3 and hM5, before agonist addition, a second baseline reading is taken for 10 seconds followed by the addition of 12.5 μl of agonist or buffer, producing a final volume of 50 μl. After agonist stimulation, the FLIPR continues to collect data every second for 60 pictures and then every 6 seconds for 20 pictures. The fluorescence emission is read using filter 1 (emission 510-570 nm) by the FLIPR on board CCD camera.
Calcium mobilization output data are calculated as the maximal relative fluorescence unit (RFU) minus the minimal value for both compound and agonist reading frame (except for hM1 and rM1 using only the maximal RFU). Data are analyzed using sigmoidal fits of a non-linear curve-fitting program (XLfit version 4.2.2 Excel add-in version 4.2.2 build 18 math 1Q version 2.1.2 build 18). All pEC50 and pIC50 values are reported as arithmetic means±standard error of mean of ‘n’ independent experiments.
(In general: Calcium flux is commonly read through the fluorescence of an indicator in the cells.)

On to `CCOC(=O)N1CCC(C)(N2CCC(N3C(=O)CO[C@H]4CCCC[C@@H]43)CC2)C1` (single isomer, unassigned) [Example 18], for which the EC50 stood at 23 nM.

As for `CCOC(=O)N1CCC(C)(N2CCC(N3C(=O)CO[C@H]4CCCC[C@@H]43)CC2)C1` (single isomer, unassigned) [Example 19], the EC50 is 46 nM.

As to `CCOC(=O)N1CCC(N2CCC(N3C(=O)NC[C@H]4CCCC[C@@H]43)CC2)CC1` [Example 1, Ethyl 4-[4-[(4aR,8aS)-2-oxo-3,4,4a,5,6,7,8,8a-octahydroquinazolin-1-y]-1-piperidyl]piperidine-1-carboxylate], the concentration for a half-maximal effect (EC50) was 1.6 nM.

Turning to `CC(C)OC(=O)N1CCC(N2CCC(N3C(=O)NC[C@H]4CCCC[C@@H]43)CC2)CC1` [Example 2, Propan-2-yl 4-[4-[(4aR,8aS)-2-oxo-3,4,4a,5,6,7,8,8a-octahydroquinazolin-1-yl]-1-piperidyl]piperidine-1-carboxylate], the EC50 is 5.3 nM.

As for `O=C(C1CC1)N1CCC(N2CCC(N3C(=O)NC[C@H]4CCCC[C@@H]43)CC2)CC1` [Example 3, (4aR,8aS)-1-[1-[1-(cyclopropanecarbonyl)-4-piperidyl]-4-piperidyl]-3,4,4a,5,6,7,8,8a-octahydroquinazolin-2-one], the EC50 was 13 nM.

Consider `Cc1ccccc1C(=O)N1CCC(N2CCC(N3C(=O)NC[C@H]4CCCC[C@@H]43)CC2)CC1` [Example 4, (4aR,8aS)-1-[1-[1-(2-methylbenzoyl)-4-piperidyl]-4-piperidyl]-3,4,4a,5,6,7,8,8a-octahydroquinazolin-2-one], for which the 50% effective concentration (EC50) came out at 25 nM.

In the case of `CC(C)OC(=O)N1CCC(N2CCC(N3C(=O)N(C)C[C@H]4CCCC[C@@H]43)CC2)CC1` [Example 6, Propan-2-yl 4-[4-[(4aR,8aS)-3-methyl-2-oxo-4a,5,6,7,8,8a-hexahydro-4H-quinazolin-1-yl]-1-piperidyl]piperidine-1-carboxylate], the 50% effective concentration (EC50) turned out to be 94 nM.

In the case of `CCOC(=O)N1CCC(C)(N2CCC(N3C(=O)NC[C@H]4CCCC[C@@H]43)CC2)CC1` [Example 7, Ethyl 4-[4-[(4aR,8aS)-2-oxo-3,4,4a,5,6,7,8,8a-octahydroquinazolin-1-yl]-1-piperidyl]-4-methyl-piperidine-1-carboxylate], the concentration for a half-maximal effect (EC50) was 4.5 nM.

Take `CC(C)OC(=O)N1CCC(C)(N2CCC(N3C(=O)NC[C@H]4CCCC[C@@H]43)CC2)CC1` [Example 8, Propan-2-yl 4-[4-[(4aR,8aS)-2-oxo-3,4,4a,5,6,7,8,8a-octahydroquinazolin-1-yl]-1-piperidyl]-4-methyl-piperidine-1-carboxylate]: the EC50 is < 11 nM.

With `CCOC(=O)N1CCC(N2CCC(N3C(=O)CO[C@H]4CCCC[C@@H]43)CC2)CC1` [Example 9, Ethyl 4-[4-[(1S,6S)-9-oxo-7-oxa-10-azabicyclo[4.4.0]dec-10-yl]-1-piperidyl]piperidine-1-carboxylate], the concentration for a half-maximal effect (EC50) was determined as 17 nM.

Take `CC(C)OC(=O)N1CCC(N2CCC(N3C(=O)CO[C@H]4CCCC[C@@H]43)CC2)CC1` [Example 10, Propan-2-yl 4-[4-[(1S,6S)-9-oxo-7-oxa-10-azabicyclo[4.4.0]dec-10-yl]-1-piperidyl]piperidine-1-carboxylate]: the concentration for a half-maximal effect (EC50) amounted to 22 nM.

In the case of `Cc1ccccc1C(=O)N1CCC(N2CCC(N3C(=O)CO[C@H]4CCCC[C@@H]43)CC2)CC1` [Example 11, (1S,6S)-10-[1-[1-(2-methylbenzoyl)-4-piperidyl]-4-piperidyl]-7-oxa-10-azabicyclo[4.4.0]decan-9-one], the EC50 is 170 nM.

In the case of `Cn1cccc1C(=O)N1CCC(N2CCC(N3C(=O)CO[C@H]4CCCC[C@@H]43)CC2)CC1` [Example 12, (1S,6S)-10-[1-[1-(1-methylpyrrole-2-carbonyl)-4-piperidyl]-4-piperidyl]-7-oxa-10-azabicyclo[4.4.0]decan-9-one], the concentration giving a half-maximal response (EC50) turned out to be 340 nM.

For `CCOC(=O)N1CC[C@H](N2CCC(N3C(=O)CO[C@H]4CCCC[C@@H]43)CC2)C1` [Example 13, Ethyl (3S)-3-[4-[(1S,6S)-9-oxo-7-oxa-10-azabicyclo[4.4.0]dec-10-yl]-1-piperidyl]pyrrolidine-1-carboxylate], the EC50 is 200 nM.

Consider `CC(C)OC(=O)N1CCC(N2CCC(N3C(=O)CO[C@@H]4CCCC[C@H]43)CC2)CC1` [Example 14, Propan-2-yl 4-[4-[(1R,6R)-9-oxo-7-oxa-10-azabicyclo[4.4.0]dec-10yl]-1-piperidyl]piperidine-1-carboxylate], for which the EC50 was 130 nM.

For the compound `CCOC(=O)N1CCC(N2CCC(N3C(=O)OC[C@H]4CCCC[C@@H]43)CC2)CC1` [Example 15, Ethyl 4-[4-[(1S,6S)-9-oxo-8-oxa-10-azabicyclo[4.4.0]dec-10-yl]-1-piperidyl]piperidine-1-carboxylate], the EC50 turned out to be 83 nM.
